# Assay results from patent US20070299043A1, “Anti-scarring drug combinations and use thereof” (priority 2005, published 2007).
# Structures can show the parent of a compound that is named as a salt.
# Key:
# [1] = Increase of the potency of an immunosuppressive agent
# E. coli UB1005 C498 = test: MIC by microtitre broth dilution; type: cell-based; details: for Minimum inhibitory concentration: Gram−, wt, Mueller Hinton broth, 37° C, 24h
# Method: (§1) MIC assays were conducted essentially as described by Amsterdam, D. 1996, “Susceptibility testing of antimicrobials in liquid media”, p. 52-111, in Loman, V., ed. Antibiotics in laboratory medicine, 4th ed. Williams and Wilkins, Baltimore, Md.
# [2] = system: K. pneumoniae ATCC13883 C238; test: MIC by microtitre broth dilution; type: cell-based; details: Gram−, wt; Mueller Hinton broth, 37° C, 24h
# Method: as §1
# [3] = system: P. aeruginosa PAE/K799 H187; test: MIC by microtitre broth dilution; type: cell-based; details: Gram−, wt; Mueller Hinton broth, 37° C, 24h
# Method: as §1
# S. aureus ATCC25923 C622 = test: MIC by microtitre broth dilution; type: cell-based; details: Gram+, wt; Mueller Hinton broth, 37° C, 24h
# Method: as §1
# S. epidermidis C621 = test: MIC by microtitre broth dilution; type: cell-based; details: Gram+, wt; Mueller Hinton broth, 37° C, 24h
# Method: as §1
# S. pyogenes C721 = test: MIC by microtitre broth dilution; type: cell-based; details: Gram+, wt; Todd Hewitt broth, 37° C, 24h
# Method: as §1
# [4] = system: multiple species of bacteria and fungi; details: surface drug concentration is to be in excess of this value; cited from earlier work
# glucocorticoid receptor = target: T1, glucocorticoid receptor (Homo sapiens, UniProt P04150); test: Glucocorticoid receptor trafficking and GRE reporter plasmid transactivation in T cells; type: cell-based; details: for potentiation of prednisolone's ability to transactivate a GRE reporter plasmid: T cells
# T1 construct: endogenous in cells; host or cells: T cells
# T1 sequence (P04150 1-777): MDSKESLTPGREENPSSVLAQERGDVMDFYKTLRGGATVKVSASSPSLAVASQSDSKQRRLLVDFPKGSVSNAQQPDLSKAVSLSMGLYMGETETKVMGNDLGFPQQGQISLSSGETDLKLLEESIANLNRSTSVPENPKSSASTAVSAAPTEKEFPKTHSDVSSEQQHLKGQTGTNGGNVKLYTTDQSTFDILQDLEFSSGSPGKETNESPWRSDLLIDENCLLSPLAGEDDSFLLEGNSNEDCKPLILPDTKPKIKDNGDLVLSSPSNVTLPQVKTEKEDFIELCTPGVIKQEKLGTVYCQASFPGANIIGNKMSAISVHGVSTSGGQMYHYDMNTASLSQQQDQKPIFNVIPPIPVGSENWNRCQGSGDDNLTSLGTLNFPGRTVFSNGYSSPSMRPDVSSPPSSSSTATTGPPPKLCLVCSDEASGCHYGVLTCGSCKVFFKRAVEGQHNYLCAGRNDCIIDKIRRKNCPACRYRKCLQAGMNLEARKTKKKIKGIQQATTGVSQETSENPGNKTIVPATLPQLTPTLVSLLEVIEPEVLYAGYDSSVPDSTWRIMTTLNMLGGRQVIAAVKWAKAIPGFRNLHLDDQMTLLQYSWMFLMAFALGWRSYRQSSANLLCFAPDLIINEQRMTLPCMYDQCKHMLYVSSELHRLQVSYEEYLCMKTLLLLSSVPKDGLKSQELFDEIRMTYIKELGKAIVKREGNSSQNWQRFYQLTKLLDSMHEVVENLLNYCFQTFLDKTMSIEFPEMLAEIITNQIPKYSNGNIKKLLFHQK
# NFAT = NFAT activation, translocation and transactivation; type: cell-based
# NFkB and AP1 = NFkB and AP1 activation; type: cell-based
# p38, JNK, ERK = test: p38, JNK and ERK activation; type: cell-based
# [5] = cited from earlier work; for solubility in alcohol/ethanol: alcohol or ethanol
# [6] = system: LPS-induced TNF-α production; test: Acute in vivo model of inflammation (LPS-induced TNF-α release); details: component alone (prednisolone at reduced dose)
# joint swelling = test: Chronic in vivo arthritis model (adjuvant model), joint swelling; details: component alone (prednisolone at reduced dose)
# [7] = system: carrageenan-induced paw edema; test: Rat carrageenan-induced paw edema model, paw volume; type: in vivo; details: Amoxapine 2.26 mg/kg, foot pad, T-1 hr; Tmax = 6 hrs; listed as amoxapine (Amox)
# Method: A dose-range finding study was performed to determine the anti-inflammatory activity of various ratios of methyl prednisolone acetate and amoxapine in a rat carrageenan-induced paw edema model. […] The molar ratio of methyl prednisolone acetate to amoxapine ranged from 1:1 to 1:300, using total doses of methyl prednisolone acetate of 0.01, 0.03 or 0.1 mg/kg.
# The test agent (a combination of methyl prednisolone acetate and amoxapine), vehicle control, or reference agents (methyl prednisolone acetate, amoxapine, or Depo-Medrol®) were administered in the left hind foot pad of rats. After 60 minutes, paw edema was induced by injection of 100 μl of 1% carrageenan in the same foot pad. The paw volume was measured with a water displacement plethysmometer immediately prior to test agent injection (T−1h), at the time of carrageenan injection (T0h), and at T6h. Animals were euthanized by carbon dioxide inhalation. Paw tissue samples were collected and flash frozen in liquid nitrogen. Samples were assayed for TNF-α by enzyme-linked immunoassay (ELISA).
# [8] = 200 mg/day orally; cited from earlier work
# [9] = system: mast cells and eosinophil activation
smiles,measurement,setting,value
Oc1cc(Cl)ccc1Oc1ccc(Cl)cc1Cl [triclosan],potency of an immunosuppressive agent,[1],increases the potency
NC(=O)NO [hydroxyurea],Minimum inhibitory concentration,E. coli UB1005 C498,N
same,Minimum inhibitory concentration,[2],N
same,Minimum inhibitory concentration,[3],10^−4 Molar
same,Minimum inhibitory concentration,S. aureus ATCC25923 C622,N
same,Minimum inhibitory concentration,S. epidermidis C621,N
same,Minimum inhibitory concentration,S. pyogenes C721,10^−4 Molar
CNCCCC12CCC(c3ccccc31)c1ccccc12 [maprotiline],potency of an immunosuppressive agent,[1],increases the potency
"O=c1[nH]cc(F)c(=O)[nH]1 [5-fluorouracil, 5-Fluorouracil]",MIC,"E. coli UB1005 C498; Escherichia coli, UB1005C498, 24 h, read-out: Minimum inhibitory concentration",1 µM
same,concentration known to be lethal to multiple species of bacteria and fungi,[4],> 10^−4 M
CN(Cc1cnc2nc(N)nc(N)c2n1)c1ccc(C(=O)N[C@@H](CCC(=O)O)C(=O)O)cc1 [methotrexate],Minimum inhibitory concentration,E. coli UB1005 C498,N
same,Minimum inhibitory concentration,[2],10^−6 Molar
same,Minimum inhibitory concentration,[3],N
same,Minimum inhibitory concentration,S. aureus ATCC25923 C622,10^−5 Molar
same,Minimum inhibitory concentration,S. epidermidis C621,N
same,Minimum inhibitory concentration,S. pyogenes C721,10^−6 Molar
O=C1c2c(O)ccc(O)c2C(=O)c2c(NCCNCCO)ccc(NCCNCCO)c21 [mitoxantrone],Minimum inhibitory concentration,E. coli UB1005 C498,10^−5 Molar
same,concentration known to be lethal to multiple species of bacteria and fungi,[4],> 10^−5 M
"Fc1ccc(C2CCNCC2COc2ccc3c(c2)OCO3)cc1 (single isomer, unassigned; (-)) [paroxetine, (−)-trans-4 R-(4′-fluorophenyl)-3 S-[(3′,4′-methylenedioxyphenoxy)methyl]piperidine hydrochloride hemihydrate]",promotion of glucocorticoid receptor trafficking,glucocorticoid receptor,does not promote
same,potentiation of prednisolone's ability to transactivate a GRE reporter plasmid,glucocorticoid receptor,does not promote glucocorticoid receptor trafficking or potentiate
same,"NFAT activation, translocation and transactivation",NFAT,represses
same,NFkB and AP1 activation,NFkB and AP1,inhibits
same,ERK activation,"p38, JNK, ERK",but not ERK activation
same,p38 and JNK activation,"p38, JNK, ERK",inhibition
Sc1ncc2[nH]cnc2n1 [2-mercaptopurine],Minimum inhibitory concentration,E. coli UB1005 C498,N
CN(C)C(=O)C(CCN1CCC(O)(c2ccc(Cl)cc2)CC1)(c1ccccc1)c1ccccc1 [Loperamide],potency of an immunosuppressive agent,[1],increase the potency
"Nc1ccc(/N=N/c2ccccc2)c(N)n1 [Phenazopyridine base, phenazopyridine]",solubility in alcohol/ethanol,[5],slightly soluble in water and alcohol
same,solubility in water,[5],slightly soluble in water and alcohol
Sc1ncnc2nc[nH]c12 [6-mercaptopurine],Minimum inhibitory concentration,E. coli UB1005 C498,N
Clc1ccc2c(c1)C(N1CCNCC1)=Nc1ccccc1O2 [amoxapine],promotion of glucocorticoid receptor trafficking,glucocorticoid receptor,does not promote
same,potentiation of prednisolone's ability to transactivate a GRE reporter plasmid,glucocorticoid receptor,does not potentiate
same,"NFAT activation, translocation and transactivation",NFAT,block
same,NFkB and AP1 activation,NFkB and AP1,partially inhibits
same,ERK activation,"p38, JNK, ERK",unaffected
same,p38 and JNK activation,"p38, JNK, ERK",Inhibition
same,effect of the individual component alone,[6],modest or no benefit
same,effect of the individual component alone,joint swelling,modest or no benefit
same,Edema ± SEM,[7],not significantly different from the vehicle treatment
COc1cc([C@@H]2c3cc4c(cc3[C@@H](O[C@@H]3O[C@@H]5CO[C@@H](C)O[C@H]5[C@H](O)[C@H]3O)[C@H]3COC(=O)[C@H]23)OCO4)cc(OC)c1O [etoposide],Minimum inhibitory concentration,E. coli UB1005 C498,N
"CCN(CC)C(C)CN1c2ccccc2Sc2ccccc21 (stereo not drawn) [Ethopropazine, ethopropazine]",potency of an immunosuppressive agent,[1],increases the potency
"Nc1ccn([C@@H]2O[C@H](CO)[C@@H](O)[C@@H]2O)c(=O)n1 [Cytarabine, cytarabine]",Minimum inhibitory concentration,E. coli UB1005 C498,N
"NC(=O)c1ncn([C@@H]2O[C@H](CO)[C@@H](O)[C@H]2O)n1 [Ribavirin, ribavirin]",solubility in alcohol/ethanol,[5],only slightly soluble in alcohol
"COc1cccc2c1C(=O)c1c(O)c3c(c(O)c1C2=O)C[C@@](O)(C(=O)CO)C[C@@H]3O[C@H]1C[C@H](N)[C@H](O)[C@H](C)O1 [doxorubicin, Doxorubicin]",Minimum inhibitory concentration,E. coli UB1005 C498,10^−4 Molar
same,Minimum inhibitory concentration,[2],10^−6 Molar
same,Minimum inhibitory concentration,[3],10^−5 Molar
same,Minimum inhibitory concentration,S. aureus ATCC25923 C622,10^−5 Molar
same,Minimum inhibitory concentration,S. epidermidis C621,10^−6 Molar
same,Minimum inhibitory concentration,S. pyogenes C721,10^−7 Molar
same,concentration known to be lethal to multiple species of bacteria and fungi,[4],> 10^−4 M
CC(=O)N1CCN(c2ccc(OCC3COC(Cn4ccnc4)(c4ccc(Cl)cc4Cl)O3)cc2)CC1 (stereo not drawn) [ketoconazole],serum concentration,[8],about 3.2 micrograms
same,solubility in water,[5],essentially insoluble in water
CCOC(=O)N1CCC(=C2c3ccc(Cl)cc3CCc3cccnc32)CC1 [loratadine],mast cells and eosinophil activation,[9],inhibits
CC[C@@]1(O)C(=O)OCc2c1cc1n(c2=O)Cc2cc3ccccc3nc2-1 [camptothecin],Minimum inhibitory concentration,E. coli UB1005 C498,N
same,Minimum inhibitory concentration,[2],N
same,Minimum inhibitory concentration,[3],N
same,Minimum inhibitory concentration,S. aureus ATCC25923 C622,N
same,Minimum inhibitory concentration,S. pyogenes C721,N
N.N.[Cl][Pt][Cl] [cisplatin],Minimum inhibitory concentration,E. coli UB1005 C498,N
same,Minimum inhibitory concentration,[2],N
same,Minimum inhibitory concentration,[3],10^−4 Molar
same,Minimum inhibitory concentration,S. aureus ATCC25923 C622,N
same,Minimum inhibitory concentration,S. epidermidis C621,N
same,Minimum inhibitory concentration,S. pyogenes C721,N
Nc1ncnc2c1ccn2[C@@H]1O[C@H](CO)[C@@H](O)[C@H]1O [tubercidin],Minimum inhibitory concentration,E. coli UB1005 C498,N
same,Minimum inhibitory concentration,[2],N
same,Minimum inhibitory concentration,[3],N
same,Minimum inhibitory concentration,S. aureus ATCC25923 C622,N
same,Minimum inhibitory concentration,S. epidermidis C621,N
same,Minimum inhibitory concentration,S. pyogenes C721,N
